≈ marks a conversion by molar mass, not a printed value.
Legend:
Type in all cases: functional
Nakaseomyces glabratus [1] = experiment: Antimicrobial activity against Candida glabrata SSI-M68190-2007 by EUCAST method
Nakaseomyces glabratus [2] = experiment: Antimicrobial activity against Candida glabrata by EUCAST method
Candida parapsilosis = experiment: Antimicrobial activity against Candida parapsilosis ATCC 21019 by EUCAST method; conditions: Lodderomyces parapsilosis

## OC(Cn1cncn1)(Cn1cncn1)c1ccc(F)cc1F [FLUCONAZOLE]
Nakaseomyces glabratus [1]
  MIC: 0.5 µg/mL (≈ 1.63 µM)
Nakaseomyces glabratus [2]
  MIC: 8 µg/mL (≈ 26.1 µM)
Candida parapsilosis
  MIC: 0.5 µg/mL (≈ 1.63 µM)

Source: ChEMBL document CHEMBL1649144, “Breakpoints for susceptibility testing should not divide wild-type distributions of important target species” (2009)
